In ChEMBL document CHEMBL1145783, “Development of an orexin-2 receptor selective agonist, [Ala(11), D-Leu(15)]orexin-B” (Bioorg Med Chem Lett, 2003):

target: T1, Orexin receptor type 2 (Homo sapiens, UniProt O43614); test: Agonist activity against human orexin 2 receptor; EC50; nM; format: functional
T1 sequence (O43614 whole entry): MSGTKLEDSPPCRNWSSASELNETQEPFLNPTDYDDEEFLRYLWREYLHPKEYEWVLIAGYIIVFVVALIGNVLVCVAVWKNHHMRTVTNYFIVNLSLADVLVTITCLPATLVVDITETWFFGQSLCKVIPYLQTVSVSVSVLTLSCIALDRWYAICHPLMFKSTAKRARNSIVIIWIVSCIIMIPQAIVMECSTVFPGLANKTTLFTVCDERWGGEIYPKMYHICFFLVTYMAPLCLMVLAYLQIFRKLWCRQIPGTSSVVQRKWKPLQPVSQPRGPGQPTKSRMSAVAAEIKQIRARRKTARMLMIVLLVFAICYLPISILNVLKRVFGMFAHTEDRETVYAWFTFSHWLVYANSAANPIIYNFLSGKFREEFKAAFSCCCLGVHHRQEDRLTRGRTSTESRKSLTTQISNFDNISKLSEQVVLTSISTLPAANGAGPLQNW

Compound | EC50 [nM]
CC[C@H](C)[C@H](NC(=O)[C@H](CC(C)C)NC(=O)[C@@H](NC(=O)[C@@H](N)CCSC)[C@@H](C)O)C(=O)NCC(=O)N[C@@H](C)C(=O)N[C@@H](C)C(=O)N[C@@H](Cc1c[nH]cn1)C(=O)N[C@@H](CC(N)=O)C(=O)NCC(=O)N[C@@H](CO)C(=O)N[C@@H](C)C(=O)N[C@@H](CCC(N)=O)C(=O)N[C@@H](CC(C)C)C(=O)N[C@@H](CC(C)C)C(=O)N[C@@H](CCCN=C(N)N)C(=O)N[C@@H](CCC(N)=O)C(=O)N[C@@H](CC(C)C)C(=O)N[C@@H](CCCN=C(N)N)C(=O)N[C@@H](C)C(=O)N[C@@H](CCC(N)=O)C(=O)N[C@@H](CC(C)C)C(=O)NCC(=O)N1CCC[C@H]1C(=O)N1CCC[C@H]1C(=O)NCC(=O)N[C@@H](CO)C(=O)N[C@@H](CCCN=C(N)N)C(N)=O | 0.2
CC[C@H](C)[C@H](NC(=O)[C@H](CC(C)C)NC(=O)[C@@H](NC(=O)[C@@H](N)CCSC)[C@@H](C)O)C(=O)NCC(=O)N[C@@H](C)C(=O)N[C@@H](C)C(=O)N[C@@H](Cc1cnc[nH]1)C(=O)N[C@@H](CC(N)=O)C(=O)NCC(=O)N[C@@H](CO)C(=O)N[C@@H](C)C(=O)N[C@@H](CCC(N)=O)C(=O)N[C@@H](CC(C)C)C(=O)N[C@@H](CC(C)C)C(=O)N[C@@H](CCCN=C(N)N)C(=O)N[C@@H](CCC(N)=O)C(=O)N[C@@H](CC(C)C)C(=O)N[C@@H](CCCN=C(N)N)C(=O)NCC(=O)N[C@H](CCC(N)=O)C(=O)N[C@@H](CC(C)C)C(=O)NCC(=O)N1CCC[C@H]1C(=O)N1CCC[C@H]1C(=O)NCC(=O)N[C@@H](CO)C(=O)N[C@@H](CCCN=C(N)N)C(N)=O | 0.32
H-MTLIGAAHNGSAQLLRQWRGQLGPPGSR-NH2 | 0.15
H-MTLIGAGHNGSAQLLRQLRGQLGPPGSR-NH2 | 0.27
CC[C@H](C)[C@H](NC(=O)[C@H](CC(C)C)NC(=O)[C@@H](NC(=O)[C@@H](N)CCSC)[C@@H](C)O)C(=O)NCC(=O)N[C@@H](C)C(=O)N[C@@H](C)C(=O)N[C@@H](Cc1cnc[nH]1)C(=O)N[C@@H](CC(N)=O)C(=O)NCC(=O)N[C@@H](CO)C(=O)N[C@@H](C)C(=O)N[C@@H](CCC(N)=O)C(=O)N[C@@H](CC(C)C)C(=O)N[C@@H](CC(C)C)C(=O)N[C@@H](CCCN=C(N)N)C(=O)N[C@@H](CCC(N)=O)C(=O)N[C@@H](CC(C)C)C(=O)N[C@@H](CCCN=C(N)N)C(=O)N[C@H](C)C(=O)N[C@@H](CCC(N)=O)C(=O)N[C@@H](CC(C)C)C(=O)NCC(=O)N1CCC[C@H]1C(=O)N1CCC[C@H]1C(=O)NCC(=O)N[C@@H](CO)C(=O)N[C@@H](CCCN=C(N)N)C(N)=O | 0.13
H-MTLIGAAHNGSAQLLRQLRGALGPPGSR-NH2 | 0.46
CC[C@H](C)[C@H](NC(=O)[C@H](CC(C)C)NC(=O)[C@@H](NC(=O)[C@@H](N)CCSC)[C@@H](C)O)C(=O)N[C@@H](C)C(=O)N[C@@H](C)C(=O)N[C@@H](C)C(=O)N[C@@H](Cc1cnc[nH]1)C(=O)N[C@@H](CC(N)=O)C(=O)NCC(=O)N[C@@H](CO)C(=O)N[C@@H](C)C(=O)N[C@@H](CCC(N)=O)C(=O)N[C@@H](CC(C)C)C(=O)N[C@@H](CC(C)C)C(=O)N[C@@H](CCCN=C(N)N)C(=O)N[C@@H](CCC(N)=O)C(=O)N[C@@H](CC(C)C)C(=O)N[C@@H](CCCN=C(N)N)C(=O)NCC(=O)N[C@@H](CCC(N)=O)C(=O)N[C@@H](CC(C)C)C(=O)NCC(=O)N1CCC[C@H]1C(=O)N1CCC[C@H]1C(=O)NCC(=O)N[C@@H](CO)C(=O)N[C@@H](CCCN=C(N)N)C(N)=O | 290
CC[C@H](C)[C@H](NC(=O)[C@H](CC(C)C)NC(=O)[C@@H](NC(=O)[C@@H](N)CCSC)[C@@H](C)O)C(=O)NCC(=O)N[C@@H](C)C(=O)N[C@@H](C)C(=O)N[C@@H](Cc1cnc[nH]1)C(=O)N[C@@H](CC(N)=O)C(=O)NCC(=O)N[C@@H](CO)C(=O)N[C@@H](C)C(=O)N[C@@H](CCC(N)=O)C(=O)N[C@@H](CC(C)C)C(=O)N[C@H](CC(C)C)C(=O)N[C@@H](CCCN=C(N)N)C(=O)N[C@@H](CCC(N)=O)C(=O)N[C@@H](CC(C)C)C(=O)N[C@@H](CCCN=C(N)N)C(=O)NCC(=O)N[C@@H](CCC(N)=O)C(=O)N[C@@H](CC(C)C)C(=O)NCC(=O)N1CCC[C@H]1C(=O)N1CCC[C@H]1C(=O)NCC(=O)N[C@@H](CO)C(=O)N[C@@H](CCCN=C(N)N)C(N)=O | 0.44
CC[C@H](C)[C@H](NC(=O)[C@H](CC(C)C)NC(=O)[C@@H](NC(=O)[C@@H](N)CCSC)[C@@H](C)O)C(=O)NCC(=O)N[C@@H](C)C(=O)N[C@@H](C)C(=O)N[C@@H](Cc1cnc[nH]1)C(=O)N[C@@H](CC(N)=O)C(=O)NCC(=O)N[C@@H](CO)C(=O)N[C@H](C)C(=O)N[C@@H](CCC(N)=O)C(=O)N[C@@H](CC(C)C)C(=O)N[C@@H](CC(C)C)C(=O)N[C@@H](CCCN=C(N)N)C(=O)N[C@@H](CCC(N)=O)C(=O)N[C@@H](CC(C)C)C(=O)N[C@@H](CCCN=C(N)N)C(=O)NCC(=O)N[C@@H](CCC(N)=O)C(=O)N[C@@H](CC(C)C)C(=O)NCC(=O)N1CCC[C@H]1C(=O)N1CCC[C@H]1C(=O)NCC(=O)N[C@@H](CO)C(=O)N[C@@H](CCCN=C(N)N)C(N)=O | 0.26
CC[C@H](C)[C@H](NC(=O)[C@H](CC(C)C)NC(=O)[C@@H](NC(=O)[C@H](N)CCSC)[C@@H](C)O)C(=O)NCC(=O)N[C@@H](C)C(=O)N[C@@H](C)C(=O)N[C@@H](Cc1c[nH]cn1)C(=O)N[C@@H](CC(N)=O)C(=O)NCC(=O)N[C@@H](CO)C(=O)N[C@@H](C)C(=O)N[C@@H](CCC(N)=O)C(=O)N[C@@H](CC(C)C)C(=O)N[C@@H](CC(C)C)C(=O)N[C@@H](CCCN=C(N)N)C(=O)N[C@@H](CCC(N)=O)C(=O)N[C@@H](CC(C)C)C(=O)N[C@@H](CCCN=C(N)N)C(=O)NCC(=O)N[C@@H](CCC(N)=O)C(=O)N[C@@H](CC(C)C)C(=O)NCC(=O)N1CCC[C@H]1C(=O)N1CCC[C@H]1C(=O)NCC(=O)N[C@@H](CO)C(=O)N[C@@H](CCCN=C(N)N)C(N)=O | > 290
H-MTLIGAAHNGSAQLLRQSRGQLGPPGSR-NH2 | 1.2

The next lines start with the values.

EC50 [nM] | Compound
0.2 | CC[C@H](C)[C@H](NC(=O)[C@H](CC(C)C)NC(=O)[C@@H](NC(=O)[C@@H](N)CCSC)[C@@H](C)O)C(=O)NCC(=O)N[C@@H](C)C(=O)N[C@@H](C)C(=O)N[C@@H](Cc1c[nH]cn1)C(=O)N[C@@H](CC(N)=O)C(=O)NCC(=O)N[C@@H](CO)C(=O)N[C@@H](C)C(=O)N[C@@H](CCC(N)=O)C(=O)N[C@@H](CC(C)C)C(=O)N[C@@H](CC(C)C)C(=O)N[C@@H](CCCN=C(N)N)C(=O)N[C@@H](CCC(N)=O)C(=O)N[C@@H](CC(C)C)C(=O)N[C@@H](CCCN=C(N)N)C(=O)NCC(=O)N[C@@H](CCC(N)=O)C(=O)N[C@@H](CC(C)C)C(=O)N[C@H](C)C(=O)N1CCC[C@H]1C(=O)N1CCC[C@H]1C(=O)NCC(=O)N[C@@H](CO)C(=O)N[C@@H](CCCN=C(N)N)C(N)=O
0.13 | H-MTLIGAAHNGSAALLRQLRGQLGPPGSR-NH2
> 200 | CC[C@H](C)[C@H](NC(=O)[C@@H](CC(C)C)NC(=O)[C@@H](NC(=O)[C@@H](N)CCSC)[C@@H](C)O)C(=O)NCC(=O)N[C@@H](C)C(=O)N[C@@H](C)C(=O)N[C@@H](Cc1cnc[nH]1)C(=O)N[C@@H](CC(N)=O)C(=O)NCC(=O)N[C@@H](CO)C(=O)N[C@@H](C)C(=O)N[C@@H](CCC(N)=O)C(=O)N[C@@H](CC(C)C)C(=O)N[C@@H](CC(C)C)C(=O)N[C@@H](CCCN=C(N)N)C(=O)N[C@@H](CCC(N)=O)C(=O)N[C@@H](CC(C)C)C(=O)N[C@@H](CCCN=C(N)N)C(=O)NCC(=O)N[C@@H](CCC(N)=O)C(=O)N[C@@H](CC(C)C)C(=O)NCC(=O)N1CCC[C@H]1C(=O)N1CCC[C@H]1C(=O)NCC(=O)N[C@@H](CO)C(=O)N[C@@H](CCCN=C(N)N)C(N)=O
0.18 | CC[C@H](C)[C@H](NC(=O)[C@H](CC(C)C)NC(=O)[C@@H](NC(=O)[C@@H](N)CCSC)[C@@H](C)O)C(=O)NCC(=O)N[C@@H](C)C(=O)N[C@@H](C)C(=O)N[C@@H](Cc1c[nH]cn1)C(=O)N[C@@H](CC(N)=O)C(=O)NCC(=O)N[C@@H](CO)C(=O)N[C@@H](C)C(=O)N[C@@H](CCC(N)=O)C(=O)N[C@@H](CC(C)C)C(=O)N[C@@H](CC(C)C)C(=O)N[C@@H](CCCN=C(N)N)C(=O)N[C@@H](CCC(N)=O)C(=O)N[C@@H](CC(C)C)C(=O)N[C@@H](CCCN=C(N)N)C(=O)NCC(=O)N[C@@H](CCC(N)=O)C(=O)N[C@@H](CC(C)C)C(=O)NCC(=O)N1CCC[C@H]1C(=O)N1CCC[C@H]1C(=O)N[C@@H](C)C(=O)N[C@@H](CO)C(=O)N[C@@H](CCCN=C(N)N)C(N)=O
0.22 | H-MTLIGAAHNGSAQLLRQLRGQLGPPGAR-NH2
0.19 | CC[C@H](C)[C@H](NC(=O)[C@H](CC(C)C)NC(=O)[C@@H](NC(=O)[C@@H](N)CCSC)[C@@H](C)O)C(=O)NCC(=O)N[C@@H](C)C(=O)N[C@@H](C)C(=O)N[C@@H](Cc1c[nH]cn1)C(=O)N[C@@H](CC(N)=O)C(=O)NCC(=O)N[C@@H](CO)C(=O)N[C@@H](C)C(=O)N[C@@H](CCC(N)=O)C(=O)N[C@@H](CC(C)C)C(=O)N[C@@H](CC(C)C)C(=O)N[C@@H](CCCN=C(N)N)C(=O)N[C@@H](CCC(N)=O)C(=O)N[C@@H](CC(C)C)C(=O)N[C@@H](CCCN=C(N)N)C(=O)NCC(=O)N[C@@H](CCC(N)=O)C(=O)N[C@@H](CC(C)C)C(=O)NCC(=O)N1CCC[C@H]1C(=O)N1CCC[C@H]1C(=O)NCC(=O)N[C@@H](CO)C(=O)N[C@H](CCCN=C(N)N)C(N)=O
